# Results published in patent publication US8710062B2, “Piperazinedione compounds” (Taipei Medical University, priority 2011, dated 2014).
# Where a name gives a salt, the structure may show the parent alone.
# System: 60 Human Cancer Cell Lines (NCI-60)
# Assay: Broad-spectrum anticancer activity (NCI-60, SRB)
# Assay type: cell-based
# Details: mean against leukemia, NSCLC, colon, CNS, melanoma, ovarian, renal, prostate and breast cancer, 48 h, read-out: mean pIC50 (converted)
# Experimental: Broad-spectrum anticancer activities were conducted by NCI/NIH following standard protocols.
# Human tumor cell lines were grown in RPMI 1640 medium containing 5% fetal bovine serum and 2 mM L-glutamine. For a typical screening experiment, cells were inoculated into 96-well microtiter plates in 100 μL at the plating densities ranging from 5,000 to 40,000 cells/well depending on the doubling time of individual cell lines. After cell inoculation, the microtiter plates were incubated at 37° C., 5% CO2, 95% air and 100% relative humidity for 24 h prior to addition of experimental drugs. […]
# Following drug addition, the plates were incubated for an additional 48 h at 37° C., 5% CO2, 95% air, and […]. […] Bound stain was subsequently solubilized with 10 mM trizma base, and the absorbance was read on an automated plate reader at a wavelength of 515 nm. […] Using the seven absorbance measurements [time zero, (Tz), control growth, (C), and test growth in the presence of drug at the five concentration levels (Ti)], the percentage growth was calculated at each of the drug concentrations levels. Percentage growth inhibition was calculated as: [(Ti−Tz)/(C−Tz)]×100 for concentrations for which Ti>/=Tz [(Ti−Tz)/Tz]×100 for concentrations for which Ti<Tz.
# Three dose response parameters were calculated for each experimental agent. […]
structure (smiles),measurement,value
"O=c1[nH]/c(=C\c2ccc(OCc3ccncc3)cn2)c(=O)[nH]/c1=C\c1ccccc1 [Compound 2, 3-benzylidene-6-((5-(pyridin-4-ylmethoxy)pyridin-2-yl)methylene)piperazine-2,5-dione methanesulfonic acid salt]",IC50,0.0525 µM
